# Biological target: T1, OX1 (Homo sapiens, UniProt O43613)
# T1 construct: expressed in transfected cells; host or cells: CHO (CHO-OX1, kept under selection antibiotic)
# T1 sequence (O43613 1-425): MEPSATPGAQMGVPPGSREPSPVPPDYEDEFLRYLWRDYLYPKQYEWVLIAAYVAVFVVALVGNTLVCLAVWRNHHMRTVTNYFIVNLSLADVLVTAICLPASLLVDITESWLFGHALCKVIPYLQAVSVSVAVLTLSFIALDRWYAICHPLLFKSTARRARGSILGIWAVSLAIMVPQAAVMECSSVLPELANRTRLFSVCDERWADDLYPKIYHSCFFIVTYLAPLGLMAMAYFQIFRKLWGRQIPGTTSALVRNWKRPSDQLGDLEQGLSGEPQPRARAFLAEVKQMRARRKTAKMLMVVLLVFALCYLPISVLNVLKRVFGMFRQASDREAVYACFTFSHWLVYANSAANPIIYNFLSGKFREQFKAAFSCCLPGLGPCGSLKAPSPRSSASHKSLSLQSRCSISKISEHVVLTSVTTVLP
# Assay: Orexin receptor cell-based functional assay, [Ca2+]i by FLIPR, CHO-OX1 cells
# Conditions: CHO-OX1 cells, [Ca2+]i by FLIPR, antagonist dose-range 0.1 nM-10 μM, EC90 of OXA; read-out: OX1
# Experimental: Measurement of [Ca^2+]i using a FLIPR: CHO—OX1 or CHO—OX2 cells are seeded into black-walled clear-base 384-well plates (Costar) at a density of 20,000 cells per well in F12-K medium supplemented with 10% FBS and selection antibiotic (500 ug/ml G418 or 15 ug/ml Blasticidin) and cultured overnight. The cells are incubated with equal volume of calcium4 loading buffer (Molecular Devices, Inc.) containing 2.5 mM probenecid at 37° C. for 30 min, followed by putative OX1 or OX2 receptor antagonists (dose-range 0.1 nM-10 μM) for another 30 min.
# The cells are incubated with equal volume of calcium6 loading buffer (Molecular Devices, Inc.) containing 2.5 mM probenecid at 37° C. for 2 h, followed by test compounds (dose-range 0.1 nM-10 μM) for another 30 min.
row,Structure (SMILES),IC50
1,"Cc1ccc(-n2cnc(C(F)(F)F)n2)c(C(=O)N2CCC[C@@H](C)[C@H]2CNc2ccc(C#N)cn2)c1 [Example A51, 6-((((2S,3R)-3-Methyl-1-(5-methyl-2-(3-(trifluoromethyl)-1H-1,2,4-triazol-1-yl)benzoyl)piperidin-2-yl)methyl)amino)nicotinonitrile]",> 1000 nM
2,"Cc1ccc(C(=O)N2CCC[C@@H](C)[C@H]2CNc2ncc(C(F)(F)F)cn2)c(-n2nccn2)c1 [Example A272, ((2S,3R)-3-Methyl-2-(((5-(trifluoromethyl)pyrimidin-2-yl)amino)methyl)piperidin-1-yl)(4-methyl-2-(2H-1,2,3-triazol-2-yl)phenyl)methanone]",14 nM
3,"Cc1ccc(-c2cnn(C)c2)c(C(=O)N2CCC[C@@H](C)[C@H]2COc2ccc(C(F)(F)F)cn2)c1 [Example A114, ((2S,3R)-3-Methyl-2-(((5-(trifluoromethyl)pyridin-2-yl)oxy)methyl)piperidin-1-yl)(5-methyl-2-(1-methyl-1H-pyrazol-4-yl)phenyl)methanone]",> 1000 nM

# Same assay, conditions: Table 2; CHO-OX1 cells, EC90 of OXA; read-out: IC50 Bioactivity OX1
row,Structure (SMILES),IC50
1,"Cc1cc2c(C(=O)NCC3CCCC(C)N3C(=O)c3nc(C)sc3-c3ccc(F)cc3)cccc2o1 (racemic) [Example 61, rac-N-((1-(5-(4-Fluorophenyl)-2-methylthiazole-4-carbonyl)-6-methylpiperidin-2-yl)methyl)-2-methylbenzofuran-4-carboxamide]",7 nM
2,"Cc1nc(-c2ccccc2)c(C(=O)N2CC[C@H](O)[C@H]2CNC(=O)c2cccc3cccnc23)s1 [Example 130, N-(((2R,3S)-3-Hydroxy-1-(2-methyl-4-phenylthiazole-5-carbonyl)pyrrolidin-2-yl)methyl)quinoline-8-carboxamide]",6 nM
3,"COc1c(F)cccc1C(=O)N1CCC[C@@H](C)[C@H]1CNC(=O)c1cccc2cccnc12 (racemic) [Example 10, rac-cis-N-((1-(3-Fluoro-2-methoxybenzoyl)-3-methylpiperidin-2-yl)methyl)quinoline-8-carboxamide]",< 3000 nM
4,"Cc1ccc(-c2ccc(N3CCN(C)CC3)nc2)c(C(=O)N2CCC[C@@H](C)[C@H]2CNc2ccc(C(F)(F)F)cn2)c1 (racemic) [Example 110, rac-cis-(3-Methyl-2-(((5-(trifluoromethyl)pyridin-2-yl)amino)methyl)piperidin-1-yl)(5-methyl-2-(6-(4-methylpiperazin-1-yl)pyridin-3-yl)phenyl)methanone]",> 1000 nM
5,"O=C(NC[C@@H]1[C@H]2CCCC[C@H]2CN1C(=O)c1ccccc1-c1ccccc1)c1cccc2cccnc12 (racemic) [Example 66, N-(((1S,3aR,7aS)-2-(Biphenylcarbonyl)octahydro-1H-isoindol-1-yl)methyl)quinoline-8-carboxamide]",350 nM
6,"Cc1nc(C(=O)N2CCC[C@@H](C)[C@H]2COc2nc3ccccc3o2)c(-c2ccc(F)cc2)s1 (racemic) [Example 80, rac-cis-(2-((Benzo[d]oxazol-2-yloxy)methyl)-3-methylpiperidin-1-yl)(5-(4-fluorophenyl)-2-methylthiazol-4-yl)methanone]",140 nM
7,"CCc1cnc(NC[C@@H]2[C@H](C)CCCN2C(=O)c2nc(C)sc2-c2ccc(F)cc2)nc1 (racemic) [Example 16, rac-cis-(2-(((5-Ethylpyrimidin-2-yl)amino)methyl)-3-methylpiperidin-1-yl)(5-(4-fluorophenyl)-2-methylthiazol-4-yl)methanone]",8 nM
8,"O=C(NCC1CCC(F)CN1C(=O)c1ccccc1-c1ccccc1)c1cccc2cccnc12 (single isomer, unassigned) [Example 37, N-((1-(Biphenylcarbonyl)-5-fluoropiperidin-2-yl)methyl)quinoline-8-carboxamide]",1 nM
9,"Cc1ccc(-n2cncn2)c(C(=O)N2CCC[C@@H](C)[C@H]2CNc2ccc(C(F)(F)F)cn2)c1 (racemic) [Example 117, rac-cis-(3-Methyl-2-(((5-(trifluoromethyl)pyridin-2-yl)amino)methyl)piperidin-1-yl)(5-methyl-2-(1H-1,2,4-triazol-1-yl)phenyl)methanone]",38 nM
10,"Cc1ccc(-c2cccnc2)c(C(=O)N2CCC[C@@H](C)[C@H]2CNc2ccc(C(F)(F)F)cn2)c1 (racemic) [Example 104, rac-cis-(3-Methyl-2-(((5-(trifluoromethyl)pyridin-2-yl)amino)methyl)piperidin-1-yl) (5-methyl-2-(pyridin-3-yl)phenyl)methanone]",1 nM

# More lines, now with the values ahead:
row,IC50,Structure (SMILES)
1,< 10000 nM,"Cc1nc(-c2ccccc2)c(C(=O)N2CC(NC(C)C)CCC2CNC(=O)c2cccc3cccnc23)s1 (racemic) [Example 48, N-((5-(Isopropylamino)-1-(2-methyl-4-phenylthiazole-5-carbonyl)piperidin-2-yl)methyl)quinoline-8-carboxamide]"
2,< 100 nM,"Cc1ccc(-n2ccnc2)c(C(=O)N2CCC[C@@H](C)[C@H]2CNc2ccc(C(F)(F)F)cn2)c1 (racemic) [Example 116, rac-cis-(2-(1H-Imidazol-1-yl)-5-methylphenyl)(3-methyl-2-(((5-(trifluoromethyl)pyridin-2-yl)amino)methyl)piperidin-1-yl)methanone]"
3,> 1000 nM,"Cc1nc(C(=O)N2CCC[C@@H](C)[C@H]2CNc2nccnc2Cl)c(-c2ccc(F)cc2)s1 (racemic) [Example 121, rac-cis-(2-(((3-Chloropyrazin-2-yl)amino)methyl)-3-methylpiperidin-1-yl)(5-(4-fluorophenyl)-2-methylthiazol-4-yl)methanone]"
4,1 nM,"COc1c(F)cccc1C(=O)NCC1CCCC(C)N1C(=O)c1nc(C)sc1-c1ccc(F)cc1 (racemic) [Example 60, rac-3-Fluoro-N-((1-(5-(4-fluorophenyl)-2-methylthiazole-4-carbonyl)-6-methylpiperidin-2-yl)methyl)-2-methoxybenzamide]"
5,35 nM,"Cc1nc(C(=O)N2CCC[C@@H](C(C)C)[C@H]2CNc2nc3ccccc3o2)c(-c2ccc(F)cc2)s1 (racemic) [Example 84, rac-cis-((2S,3S)-2-((Benzo[d]oxazol-2-ylamino)methyl)-3-isopropylpiperidin-1-yl)(5-(4-fluorophenyl)-2-methylthiazol-4-yl)methanone]"
6,300 nM,"CC[C@@H]1CCCN(C(=O)c2nc(C)sc2-c2ccc(F)cc2)[C@@H]1CNc1ccc(C(F)(F)F)cn1 (racemic) [Example 76, rac-cis-(3-Ethyl-2-(((5-(trifluoromethyl)pyridin-2-yl)amino)methyl)piperidin-1-yl)(5-(4-fluorophenyl)-2-methylthiazol-4-yl)methanone]"
7,< 10000 nM,"CCNC1CCC(CNC(=O)c2cccc3cccnc23)N(C(=O)c2sc(C)nc2-c2ccccc2)C1 (racemic) [Example 46, N-((5-(Ethylamino)-1-(2-methyl-4-phenylthiazole-5-carbonyl)piperidin-2-yl)methyl)quinoline-8-carboxamide]"
8,25 nM,"Cc1ccc(-c2ncco2)c(C(=O)N2CCC[C@@H](C)[C@H]2CNc2ccc(C(F)(F)F)cn2)c1 (racemic) [Example 113, rac-cis-(3-Methyl-2-(((5-(trifluoromethyl)pyridin-2-yl)amino)methyl)piperidin-1-yl)(5-methyl-2-(oxazol-2-yl)phenyl)methanone]"
9,< 100 nM,"O=C(NCC1C2CCC(CC2)N1C(=O)c1ccccc1-c1ccccc1)c1cccc2cccnc12 (racemic) [Example 140, N-(((1s,4s)-2-([1,1′-Biphenyl]-2-carbonyl)-2-azabicyclo[2.2.2]octan-3-yl)methyl)quinoline-8-carboxamide]"
10,560 nM,"CO[C@@H]1CCCN(C(=O)c2nc(C)sc2-c2ccc(F)cc2)[C@@H]1CNc1ccc(C(F)(F)F)cn1 (racemic) [Example 92, rac-cis-(3-Methoxy-2-(((5-(trifluoromethyl)pyridin-2-yl)amino)methyl)piperidin-1-yl) (5-(4-fluorophenyl)-2-methylthiazol-4-yl)methanone]"
11,10 nM,"Cc1ccc(-n2ccnn2)c(C(=O)N2CCC[C@@H](C)[C@H]2CNc2ccc(C(F)(F)F)cn2)c1 (racemic) [Example 115, rac-cis-(3-Methyl-2-(((5-(trifluoromethyl)pyridin-2-yl)amino)methyl)piperidin-1-yl)(5-methyl-2-(1H-1,2,3-triazol-1-yl)phenyl)methanone]"
12,76 nM,"CO[C@@H]1CCCN(C(=O)c2nc(C)sc2-c2ccc(F)cc2)[C@@H]1CNc1nc2ccccc2s1 (racemic) [Example 94, rac-cis-(2-((Benzo[d]thiazol-2-ylamino)methyl)-3-methoxypiperidin-1-yl)(5-(4-fluorophenyl)-2-methylthiazol-4-yl)methanone]"
13,35 nM,"O=C(NC[C@@H]1C[C@@H](F)CN1C(=O)c1ccccc1-c1ccccc1)c1cccc2cccnc12 [Example 128, N-(((2S,4R)-1-(Biphenylcarbonyl)-4-fluoropyrrolidin-2-yl)methyl)quinoline-8-carboxamide]"

# Reference: patent publication US9440982B2 (Eolas Therapeutics, Inc., priority 2012, dated 2016)
